According to the NIST ThermoML archive (doi:10.1016/j.fluid.2015.03.016):
Values joined by “and” are separate entries in the source; they are usually repeats but may differ in a detail not shown here. Identical values can stand only once.

Details: Liquid, Vibrating wire viscometry

CCCCOC(=O)CCCCC(=O)OCCCC [dibutyl hexanedioate]
Details | viscosity
333.15 K, 5090 kPa | 2.366 mPa·s
333.15 K, 5100 kPa | 2.361 mPa·s and 2.362 mPa·s
333.15 K, 5210 kPa | 2.361 mPa·s and 2.365 mPa·s
333.15 K, 5220 kPa | 2.366 mPa·s
333.15 K, 7790 kPa | 2.42 mPa·s and 2.421 mPa·s
333.15 K, 7800 kPa | 2.421 mPa·s
333.15 K, 10100 kPa | 2.493 mPa·s
333.15 K, 10120 kPa | 2.495 mPa·s
333.15 K, 10130 kPa | 2.495 mPa·s
333.15 K, 10160 kPa | 2.493 mPa·s
333.15 K, 14860 kPa | 2.621 mPa·s
333.15 K, 15150 kPa | 2.62 mPa·s
333.15 K, 15240 kPa | 2.619 mPa·s
333.15 K, 15260 kPa | 2.625 mPa·s
333.15 K, 20250 kPa | 2.763 mPa·s
333.15 K, 20260 kPa | 2.76 mPa·s
333.15 K, 20270 kPa | 2.761 mPa·s
333.15 K, 20290 kPa | 2.76 mPa·s
333.15 K, 29840 kPa | 3.05 mPa·s
333.15 K, 29880 kPa | 3.043 mPa·s
333.15 K, 30130 kPa | 3.05 mPa·s
333.15 K, 30150 kPa | 3.042 mPa·s
333.15 K, 30230 kPa | 3.047 mPa·s
333.15 K, 39970 kPa | 3.331 mPa·s
333.15 K, 40020 kPa | 3.332 mPa·s
333.15 K, 40070 kPa | 3.33 mPa·s
333.15 K, 40080 kPa | 3.335 mPa·s
333.15 K, 49990 kPa | 3.644 mPa·s
333.15 K, 50000 kPa | 3.638 mPa·s and 3.636 mPa·s and 3.632 mPa·s
333.15 K, 61450 kPa | 4.065 mPa·s
333.15 K, 61480 kPa | 4.064 mPa·s
333.15 K, 61600 kPa | 4.055 mPa·s
333.15 K, 61660 kPa | 4.057 mPa·s
333.16 K, 2490 kPa | 2.298 mPa·s
333.16 K, 2580 kPa | 2.299 mPa·s
333.16 K, 5220 kPa | 2.361 mPa·s
333.16 K, 7780 kPa | 2.422 mPa·s
343.14 K, 20120 kPa | 2.335 mPa·s and 2.332 mPa·s
343.14 K, 39830 kPa | 2.803 mPa·s
343.14 K, 39840 kPa | 2.809 mPa·s
343.14 K, 39860 kPa | 2.807 mPa·s
343.14 K, 39870 kPa | 2.804 mPa·s
343.14 K, 39880 kPa | 2.81 mPa·s
343.14 K, 65480 kPa | 3.489 mPa·s
343.14 K, 65500 kPa | 3.484 mPa·s
343.15 K, 1100 kPa | 1.917 mPa·s and 1.916 mPa·s
343.15 K, 1170 kPa | 1.915 mPa·s
343.15 K, 1240 kPa | 1.914 mPa·s
343.15 K, 1260 kPa | 1.918 mPa·s and 1.915 mPa·s
343.15 K, 2480 kPa | 1.949 mPa·s
343.15 K, 2500 kPa | 1.945 mPa·s and 1.947 mPa·s
343.15 K, 2520 kPa | 1.948 mPa·s
343.15 K, 2530 kPa | 1.95 mPa·s
343.15 K, 2580 kPa | 1.946 mPa·s
343.15 K, 4960 kPa | 1.993 mPa·s
343.15 K, 4970 kPa | 1.994 mPa·s
343.15 K, 4980 kPa | 1.992 mPa·s
343.15 K, 4990 kPa | 1.989 mPa·s
343.15 K, 7500 kPa | 2.054 mPa·s
343.15 K, 7510 kPa | 2.057 mPa·s and 2.059 mPa·s
343.15 K, 7520 kPa | 2.056 mPa·s
343.15 K, 10030 kPa | 2.118 mPa·s
343.15 K, 10040 kPa | 2.117 mPa·s and 2.119 mPa·s
343.15 K, 10090 kPa | 2.117 mPa·s
343.15 K, 15220 kPa | 2.224 mPa·s
343.15 K, 15240 kPa | 2.222 mPa·s
343.15 K, 15260 kPa | 2.221 mPa·s
343.15 K, 20040 kPa | 2.334 mPa·s
343.15 K, 20160 kPa | 2.337 mPa·s
343.15 K, 20210 kPa | 2.335 mPa·s
343.15 K, 20240 kPa | 2.332 mPa·s
343.15 K, 20270 kPa | 2.331 mPa·s
343.15 K, 20280 kPa | 2.335 mPa·s
343.15 K, 30090 kPa | 2.562 mPa·s
343.15 K, 30130 kPa | 2.561 mPa·s
343.15 K, 30140 kPa | 2.566 mPa·s
343.15 K, 30150 kPa | 2.561 mPa·s and 2.564 mPa·s
343.15 K, 30160 kPa | 2.566 mPa·s
343.15 K, 39830 kPa | 2.806 mPa·s
343.15 K, 50080 kPa | 3.08 mPa·s and 3.083 mPa·s
343.15 K, 65610 kPa | 3.482 mPa·s
343.15 K, 65620 kPa | 3.49 mPa·s
358.15 K, 2510 kPa | 1.559 mPa·s
358.15 K, 2520 kPa | 1.559 mPa·s and 1.56 mPa·s
358.15 K, 5050 kPa | 1.594 mPa·s and 1.593 mPa·s
358.15 K, 5060 kPa | 1.594 mPa·s and 1.595 mPa·s
358.15 K, 5240 kPa | 1.601 mPa·s
358.15 K, 9930 kPa | 1.688 mPa·s
358.15 K, 10010 kPa | 1.69 mPa·s
358.15 K, 15060 kPa | 1.769 mPa·s and 1.766 mPa·s and 1.764 mPa·s
358.15 K, 15100 kPa | 1.768 mPa·s
358.15 K, 15130 kPa | 1.765 mPa·s
358.15 K, 20130 kPa | 1.863 mPa·s
358.15 K, 30280 kPa | 2.045 mPa·s
358.15 K, 30290 kPa | 2.042 mPa·s and 2.044 mPa·s
358.15 K, 30300 kPa | 2.041 mPa·s
358.15 K, 30310 kPa | 2.043 mPa·s
358.15 K, 30320 kPa | 2.046 mPa·s
358.15 K, 39960 kPa | 2.223 mPa·s
358.15 K, 39990 kPa | 2.219 mPa·s
358.15 K, 40010 kPa | 2.219 mPa·s
358.15 K, 40040 kPa | 2.222 mPa·s
358.15 K, 40060 kPa | 2.219 mPa·s
358.16 K, 1080 kPa | 1.521 mPa·s
358.16 K, 1090 kPa | 1.524 mPa·s and 1.523 mPa·s and 1.521 mPa·s
358.16 K, 2510 kPa | 1.559 mPa·s
358.16 K, 2540 kPa | 1.558 mPa·s
358.16 K, 5180 kPa | 1.6 mPa·s
358.16 K, 5200 kPa | 1.597 mPa·s
358.16 K, 5240 kPa | 1.599 mPa·s
358.16 K, 7560 kPa | 1.645 mPa·s and 1.644 mPa·s and 1.643 mPa·s
358.16 K, 20120 kPa | 1.868 mPa·s and 1.866 mPa·s
358.16 K, 20130 kPa | 1.868 mPa·s
358.16 K, 20160 kPa | 1.863 mPa·s
358.16 K, 40080 kPa | 2.223 mPa·s
358.16 K, 50160 kPa | 2.426 mPa·s and 2.429 mPa·s
358.16 K, 50170 kPa | 2.424 mPa·s and 2.427 mPa·s
358.16 K, 65550 kPa | 2.761 mPa·s and 2.757 mPa·s and 2.758 mPa·s
373.14 K, 2490 kPa | 1.265 mPa·s
373.14 K, 10000 kPa | 1.376 mPa·s and 1.374 mPa·s
373.14 K, 15040 kPa | 1.442 mPa·s
373.14 K, 15050 kPa | 1.443 mPa·s
373.14 K, 29940 kPa | 1.668 mPa·s
373.15 K, 1060 kPa | 1.253 mPa·s
373.15 K, 1120 kPa | 1.255 mPa·s
373.15 K, 1160 kPa | 1.254 mPa·s
373.15 K, 2590 kPa | 1.264 mPa·s
373.15 K, 2600 kPa | 1.264 mPa·s
373.15 K, 5080 kPa | 1.302 mPa·s and 1.301 mPa·s and 1.303 mPa·s
373.15 K, 7600 kPa | 1.342 mPa·s and 1.341 mPa·s
373.15 K, 7610 kPa | 1.341 mPa·s
373.15 K, 10090 kPa | 1.375 mPa·s
373.15 K, 10130 kPa | 1.374 mPa·s
373.15 K, 15060 kPa | 1.441 mPa·s
373.15 K, 15070 kPa | 1.443 mPa·s
373.15 K, 20220 kPa | 1.518 mPa·s
373.15 K, 20230 kPa | 1.518 mPa·s
373.15 K, 20250 kPa | 1.516 mPa·s
373.15 K, 29920 kPa | 1.669 mPa·s
373.15 K, 29980 kPa | 1.667 mPa·s
373.15 K, 30000 kPa | 1.667 mPa·s
373.15 K, 50030 kPa | 1.976 mPa·s [middle of 4 runs]
373.15 K, 65350 kPa | 2.231 mPa·s and 2.229 mPa·s
